Experimental data as given in patent publication US20090042882A1, “SUBSTITUTED ACETAMIDES AS MODULATORS OF THE EP2 RECEPTOR” (priority 2007, published 2009).

Columns and labels:
[1] = target: T1, human prostaglandin E2 (subtype EP2) receptor (Homo sapiens, UniProt P43116); assay: cAMP antagonism assay; type: cell-based; conditions: in the presence of PGE2
T1 construct: host or cells: cells in a culture plate
Experimental: (§1) The binding of PGE2 to the EP2 subtype of the human PGE2 receptor induces activation of membrane-associated adenylate cyclases and leads to the formation of cAMP. In the presence of the phosphodiesterase inhibitor IBMX, cAMP which has accumulated due to this stimulation and been released by cell lysis is employed in a competitive detection method. In this assay, the cAMP in the lysate competes with cAMP-XL665 for binding of an Eu cryptate-labelled anti-cAMP antibody.
(§2) The two signals are measured in a suitable measuring instrument with a time lag, i.e. after the background fluorescence has declined.
(§3) The substance solutions (0.75 μl) introduced into an assay plate and 30% DMSO are dissolved in 16 μl of a KRSB+IBMX stimulation solution (1× Krebs-Ringer Bicarbonate Buffer; Sigma-Aldrich # K-4002; including 750 μM 3-isobutyl-1-methylxanthine Sigma-Aldrich # I-7018), and then 15 μl thereof are transferred into a media-free cell culture plate which has been washed with KRSB shortly beforehand.
After preincubation at room temperature (RT) for 30 minutes, 5 μl of a 4×PGE2 solution (11 nM) are added, and incubation is carried out in the presence of the agonist at RT for a further 60 min (volume: ˜20 μl) before the reaction is then stopped by adding 5 μl of lysis buffer and incubated at RT for a further 20 min (volume: ˜25 μl). The cell lysate is then transferred into a measuring plate and measured in accordance with the manufacturer's information (cyclic AMP kit Cisbio International #62AMPPEC).

[2] = target: T1, human prostaglandin E2 (subtype EP2) receptor; assay: cellular cAMP agonism assay; type: cell-based
Experimental: as §1, §2, §3
After incubation at room temperature (RT; volume: ˜15 μl) for 60 minutes, the reaction is then stopped by adding 5 μl of lysis buffer and incubated at RT for a further 20 min (volume: ˜20 μl). The cell lysate is then transferred into a measuring plate and measured in accordance with the manufacturer's information (cyclic AMP kit Cisbio International #62AMPPEC).

[3] = system: cumulus-oocyte complexes (cumulus expansion); assay: cumulus expansion assay in vitro; type: cell-based, mice
Experimental: Folliculogenesis is induced in immature female mice (strain: CD1 (ICR) from Charles River) at an age of 14-18 days by a single dose (intraperitoneal) of 10 I.U. of PMSG (Pregnant Mare Serum Gonadotropine; Sigma G-4877, Lot 68H0909). 47-50 hours after the injection, the ovaries are removed and the cumulus-oocyte complexes are removed. The cumulus complex is not yet expanded at this stage.
The cumulus-oocyte complexes are then incubated with prostaglandin E2 (PGE2) (0.3 μM), vehicle control (ethanol) or test substances for 20-24 hours. Medium: alpha-MEM medium with 0.1 mM IBMX, pyruvates (0.23 mM) glutamines (2 mM), pen/strep 100 IU/ml pen. and 100 μg/ml strep.) and HSA (8 mg/ml)). Cumulus expansion is then established through the division into four stages (according to Vanderhyden et al. Dev Biol. 1990 August; 140 (2):307-317).

T1 sequence (P43116 whole entry): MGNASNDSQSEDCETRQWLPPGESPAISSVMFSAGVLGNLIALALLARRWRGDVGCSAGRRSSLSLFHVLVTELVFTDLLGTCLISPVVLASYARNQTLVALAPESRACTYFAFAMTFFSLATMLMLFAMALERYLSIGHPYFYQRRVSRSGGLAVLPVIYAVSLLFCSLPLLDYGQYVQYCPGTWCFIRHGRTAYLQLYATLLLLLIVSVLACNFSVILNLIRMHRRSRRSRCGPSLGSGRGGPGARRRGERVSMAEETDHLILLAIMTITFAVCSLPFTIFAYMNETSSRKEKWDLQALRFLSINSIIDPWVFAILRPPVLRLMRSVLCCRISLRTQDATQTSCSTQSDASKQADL

| IC50 [1] | effect in the cellular agonism test [2] | Compound | inhibition of cumulus expansion ([3]; concentration 10 μM (10 to 20 times lower than AH 6809), competing with PGE2) | inhibition of cumulus expansion ([3]; concentration 100-200 μM, competing with the natural EP2 receptor agonist PGE2) |
| --- | --- | --- | --- | --- |
| 1300 nM | no inhibition | Cc1[nH]c2c(F)ccc(C)c2c1CCNC(=O)COc1ccc(Cl)cc1 [Example 6, 2-(4-Chlorophenoxy)-N-[2-(7-fluoro-2,4-dimethyl-1H-indol-3-yl)ethyl]-acetamide] | 30% |  |
| 1100 nM |  | COc1ccc(OCC(=O)NCCc2c(C)[nH]c3c(F)ccc(C)c23)cc1 [Example 1, N-[2-(7-Fluoro-2,4-dimethyl-1H-indol-3-yl)ethyl]2-(4-methoxyphenoxy)acetamide] |  |  |
|  |  | CC(C)Oc1ccc2c(=O)c3cc(C(=O)O)ccc3oc2c1 [AH 6809, reference compound] |  | ~30% |
| 2700 nM |  | Cc1[nH]c2c(F)ccc(C)c2c1CCNC(=O)COc1ccccc1 [Example 5, N-[2-(7-Fluoro-2,4-dimethyl-1H-indol-3-yl)-ethyl]-2-phenoxy-acetamide] |  |  |
